Patent publication US11666642B2, “PDE5 compositions and methods for immunotherapy” (Obsidian Therapeutics, Inc., priority 2017, dated 2023)

Experiments:
Assay type in all cases: cell-based, human
[1] = test system: hPDE5 truncation mutants (R732L) fused to AcGFP in HCT 116 cells; assay: Western blot for AcGFP of hPDE5 truncation mutants with Vardenafil; details: 10 μM Vardenafil, 24 hours
Description: Protein expression analysis of the truncation mutants was performed in parallel via western blot. […] GAPDH levels were also analyzed to ensure even protein loading.

[2] = test system: hPDE5 truncation mutants (R732L) fused to AcGFP in HCT-116 cells; assay: Expression of hPDE5 truncation mutants, GFP MFI by FACS
Text: Several truncation mutants of the full length hPDE5 were generated to identify regions beyond the […] catalytic domain that may serve as a template for identifying DDs. The truncation mutants tested included amino acids 535-860 of hPDE5 WT (E535-Q860), amino acids 535 to 836 of hPDE5 WT (E535-S836), amino acids 590 to 860 of hPDE5 WT (M590-Q860), amino acids 590 to 836 of hPDE5 WT (M590-S836), wherein the amino acids positions are with respect to SEQ ID NO. 1. The DD mutation R732L was incorporated into all truncation mutants and its destabilizing potential was compared to E535-Q860 wildtype by fusing the mutants to an SG linker and reporter, AcGFP. […] As a control, parental untransduced cells and cells expressing OT-hPDE5N-001, or OT-hPDE5N-028 were also included in the analysis. The mean fluorescence intensity (MFI) of GFP was analyzed by FACS. […] The destabilizing mutation coefficient was calculated as the fold change in GFP intensity in the hPDE5 mutant constructs compared to the hPDE5 wildtype construct (OT-hPDE5N-019) in the absence of the ligand. Destabilizing mutation coefficients less than 1 are desirable. Stabilization ratios greater than 1 are desired in DDs.

[3] = test system: hPDE5 mutants fused to GFP in HCT116 cells; assay: Comparative analysis of hPDE5 ligands: stabilization ratios at the highest concentrations
Description: (§1) Mean fluorescence intensity (MFI) was measured by FACS. Parental HCT116 and cells expressing OT-hPDE5N-019 wildtype construct were also included as controls. […] The destabilizing mutation coefficient ratio was calculated as the fold change in GFP intensity in the hPDE5 mutant constructs compared to the hPDE5 wildtype construct (OT-hPDE5N-019) in the absence of the ligand. Destabilizing mutation coefficient ratios less than 1 are desirable. Stabilization ratios greater than 1 are desired in DDs.
as §1, with “expressing OT-hPDE5N-019 comprising hPDE5 wildtype construct” for “expressing OT-hPDE5N-019 wildtype construct”, “Destabilizing mutation co-efficient ratios less” for “Destabilizing mutation coefficient ratios less”
The response of hPDE5 combination mutants to increasing doses of Tadalafil was tested. HCT116 cells transduced with hPDE5 constructs were treated with Tadalafil for 24 hours at doses ranging from 0.14 to 100 μM. Mean fluorescence intensity (MFI) was measured by FACS. Parental HCT116 and cells expressing OT-hPDE5N-019 comprising hPDE5 wildtype construct were also included as controls. The response of the combination mutants to Tadalafil was compared to the response of the single mutant construct OT-hPDE5N-020. The stabilization ratio (SR) was calculated as the fold change in GFP intensity in Tadalafil treated samples compared to treatment with DMSO (i.e. in the absence of ligand) with the same construct. The destabilizing mutation coefficient was calculated as the fold change in GFP intensity in the hPDE5 mutant constructs compared to the hPDE5 wildtype construct (OT-hPDE5N-0019) in the absence of the ligand. Destabilizing mutation coefficient less than 1 are desirable. Stabilization ratios greater than 1 are desired in DDs.

[4] = test system: hPDE5 mutants fused to GFP in HCT116 cells; assay: Vardenafil dose response 48 hours, fold change in GFP MFI over DMSO; details: 0.1 and 0.3 micro molar
Description: Combination mutants were generated as described in Example 9. […] Mean fluorescence intensity (MFI) of GFP was measured by FACS.

[5] = test system: hPDE5 mutants fused to GFP in HCT116 cells; assay: Vardenafil dose response of combination mutants, MFI by FACS; details: for MFI / SR: 24 hours
Description: as §1, with “expressing OT-hPDE5N-019 comprising hPDE5 wildtype construct” for “expressing OT-hPDE5N-019 wildtype construct”, “Destabilizing mutation co-efficient ratios less” for “Destabilizing mutation coefficient ratios less”

[6] = test system: hPDE5 mutants fused to GFP in HCT116 cells; assay: Sildenafil dose response of combination mutants, MFI by FACS; details: for MFI / SR: 24 hours
Description: as §1

OT-hPDE5N-020: construct consisting of E535-Q860 amino acids of hPDE5 with the R732L mutant, SG linker, AcGFP; single mutant construct
AcGFP protein (western blot) with Vardenafil [1]: showed vardenafil dependent stabilization | ligand dependent stabilization (stabilization ratio) of truncation mutants ([2]; 10 μM Sildenafil or Vardenafil, 48 hours, HCT-116): strongest ligand dependent stabilization with both ligands | Sildenafil Stabilization ratio ([2]; 10 μM Sildenafil vs DMSO, 48 hours): 6.02 | Vardenafil Stabilization ratio ([2]; 10 μM Vardenafil vs DMSO, 48 hours): 10.08 | MFI Sildenafil ([2]; HCT-116, 10 μM Sildenafil, 48 hours): 55636 | MFI Vardenafil ([2]; HCT-116, 10 μM Vardenafil, 48 hours): 93216 | MFI DMSO ([2]; HCT-116, DMSO, 48 hours): 9248 | destabilizing mutation coefficient ([2]; vs hPDE5 wildtype construct in absence of ligand): 0.14 | Stabilization ratio ([3]; Sildenafil (30 μM)): 7.78 | Stabilization ratio ([3]; Tadalafil (100 μM)): 8.94 | Stabilization ratio ([3]; Vardenafil (30 μM)): 9.62 | ligand dependent stabilization (fold change in MFI over DMSO) at lower doses of Vardenafil [4]: observed at lower doses i.e. 0.1 and 0.3 micro molar concentrations of Vardenafil | MFI ([5]; DMSO, HCT116): 7829 | SR ([5]; Vardenafil 0.04 μM vs DMSO): 1.88 | MFI ([5]; Vardenafil 0.04 μM): 14745 | SR ([5]; Vardenafil 0.12 μM vs DMSO): 2.15 | MFI ([5]; Vardenafil 0.12 μM): 16866 | SR ([5]; Vardenafil 0.37 μM vs DMSO): 3.17 | MFI ([5]; Vardenafil 0.37 μM): 24847 | SR ([5]; Vardenafil 1.11 μM vs DMSO): 3.94 | MFI ([5]; Vardenafil 1.11 μM): 30879 | SR ([5]; Vardenafil 3.33 μM vs DMSO): 4.54 | MFI ([5]; Vardenafil 3.33 μM): 35564 | SR ([5]; Vardenafil 10 μM vs DMSO): 4.99 | MFI ([5]; Vardenafil 10 μM): 39089 | SR ([5]; Vardenafil 30 μM vs DMSO): 9.62 | MFI ([5]; Vardenafil 30 μM): 75323 | destabilizing mutation coefficient ([5]; Vardenafil dose response experiment, absence of ligand, vs OT-hPDE5N-019): 0.13 | MFI ([6]; DMSO, HCT116): 6172 | SR ([6]; Sildenafil 0.04 μM vs DMSO): 0.86 | MFI ([6]; Sildenafil 0.04 μM): 5299 | SR ([6]; Sildenafil 0.12 μM vs DMSO): 1.04 | MFI ([6]; Sildenafil 0.12 μM): 6441 | SR ([6]; Sildenafil 0.37 μM vs DMSO): 2.06 | MFI ([6]; Sildenafil 0.37 μM): 12739 | SR ([6]; Sildenafil 1.11 μM vs DMSO): 2.58 | MFI ([6]; Sildenafil 1.11 μM): 15952 | SR ([6]; Sildenafil 3.33 μM vs DMSO): 3.82 | MFI ([6]; Sildenafil 3.33 μM): 23549 | SR ([6]; Sildenafil 10 μM vs DMSO): 4.49 | MFI ([6]; Sildenafil 10 μM): 27693 | SR ([6]; Sildenafil 30 μM vs DMSO): 7.78 | MFI ([6]; Sildenafil 30 μM): 47992 | destabilizing mutation co-efficient ratio ([6]; Sildenafil dose response experiment, absence of ligand, vs OT-hPDE5N-019): 0.1
